Laboratory results as given in ChEMBL document CHEMBL1151767, “Lipidyl pseudopteranes A-F: isolation, biomimetic synthesis, and PTP1B inhibitory activity of a new class of pseudopteranoids from the Gorgonian Pseudopterogorgia acerosa” (J Nat Prod, 2008).
Activity calls are given as the source filed them. The rule behind the calls is not given here.

Tests used:
[1] = biological target: T1, Dual specificity protein phosphatase 22 (Homo sapiens) (UniProt Q9NRW4); test: Inhibition of GST-tagged PTP MKPX at 100 ug/mL
T1 sequence (whole entry): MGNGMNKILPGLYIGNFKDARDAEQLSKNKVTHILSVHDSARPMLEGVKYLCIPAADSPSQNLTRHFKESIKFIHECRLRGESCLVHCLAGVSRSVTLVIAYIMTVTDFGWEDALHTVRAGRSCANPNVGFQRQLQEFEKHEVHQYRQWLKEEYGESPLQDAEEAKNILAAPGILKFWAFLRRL

[2] = biological target: T2, Tyrosine-protein phosphatase non-receptor type 1 (Homo sapiens) (UniProt P18031); test: Inhibition of GST-tagged PTP1B at 100 ug/mL
T2 sequence (whole entry): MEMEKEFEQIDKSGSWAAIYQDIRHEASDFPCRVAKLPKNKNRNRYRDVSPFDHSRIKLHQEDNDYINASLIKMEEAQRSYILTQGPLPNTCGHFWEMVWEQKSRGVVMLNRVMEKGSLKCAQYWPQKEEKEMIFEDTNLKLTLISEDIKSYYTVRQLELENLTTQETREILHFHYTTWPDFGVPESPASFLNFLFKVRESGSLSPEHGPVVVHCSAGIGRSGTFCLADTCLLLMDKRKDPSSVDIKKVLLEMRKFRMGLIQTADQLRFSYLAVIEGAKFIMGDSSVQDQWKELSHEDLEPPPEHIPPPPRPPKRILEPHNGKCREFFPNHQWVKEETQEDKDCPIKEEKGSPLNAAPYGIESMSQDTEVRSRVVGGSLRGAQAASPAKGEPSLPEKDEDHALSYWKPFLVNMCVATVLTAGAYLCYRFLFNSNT

[3] = biological target: Tyrosine-protein phosphatase non-receptor type 6 (Homo sapiens) (UniProt P29350); test: Inhibition of GST-tagged PTP SHP1 at 100 ug/mL
Tyrosine-protein phosphatase non-receptor type 6 (Homo sapiens), sequence (P29350 whole entry): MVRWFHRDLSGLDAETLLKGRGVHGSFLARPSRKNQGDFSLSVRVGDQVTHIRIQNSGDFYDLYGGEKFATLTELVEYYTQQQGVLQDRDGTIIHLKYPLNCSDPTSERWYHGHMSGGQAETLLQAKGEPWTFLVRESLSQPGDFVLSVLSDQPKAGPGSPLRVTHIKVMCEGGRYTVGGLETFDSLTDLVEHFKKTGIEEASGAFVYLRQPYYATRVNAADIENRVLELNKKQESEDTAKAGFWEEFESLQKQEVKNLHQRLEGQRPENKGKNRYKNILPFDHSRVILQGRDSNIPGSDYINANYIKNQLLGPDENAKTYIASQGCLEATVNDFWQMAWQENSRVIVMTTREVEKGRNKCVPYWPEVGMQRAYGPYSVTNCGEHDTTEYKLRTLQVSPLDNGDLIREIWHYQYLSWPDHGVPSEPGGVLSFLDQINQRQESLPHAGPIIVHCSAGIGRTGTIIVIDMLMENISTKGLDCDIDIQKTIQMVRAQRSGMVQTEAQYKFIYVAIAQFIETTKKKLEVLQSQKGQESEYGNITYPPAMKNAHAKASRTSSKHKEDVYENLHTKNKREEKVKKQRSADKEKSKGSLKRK

[4] = biological target: Receptor-type tyrosine-protein phosphatase F (Homo sapiens) (UniProt P10586); test: Inhibition of GST-tagged PTP LAR at 100 ug/mL
Receptor-type tyrosine-protein phosphatase F (Homo sapiens), sequence (P10586 whole entry): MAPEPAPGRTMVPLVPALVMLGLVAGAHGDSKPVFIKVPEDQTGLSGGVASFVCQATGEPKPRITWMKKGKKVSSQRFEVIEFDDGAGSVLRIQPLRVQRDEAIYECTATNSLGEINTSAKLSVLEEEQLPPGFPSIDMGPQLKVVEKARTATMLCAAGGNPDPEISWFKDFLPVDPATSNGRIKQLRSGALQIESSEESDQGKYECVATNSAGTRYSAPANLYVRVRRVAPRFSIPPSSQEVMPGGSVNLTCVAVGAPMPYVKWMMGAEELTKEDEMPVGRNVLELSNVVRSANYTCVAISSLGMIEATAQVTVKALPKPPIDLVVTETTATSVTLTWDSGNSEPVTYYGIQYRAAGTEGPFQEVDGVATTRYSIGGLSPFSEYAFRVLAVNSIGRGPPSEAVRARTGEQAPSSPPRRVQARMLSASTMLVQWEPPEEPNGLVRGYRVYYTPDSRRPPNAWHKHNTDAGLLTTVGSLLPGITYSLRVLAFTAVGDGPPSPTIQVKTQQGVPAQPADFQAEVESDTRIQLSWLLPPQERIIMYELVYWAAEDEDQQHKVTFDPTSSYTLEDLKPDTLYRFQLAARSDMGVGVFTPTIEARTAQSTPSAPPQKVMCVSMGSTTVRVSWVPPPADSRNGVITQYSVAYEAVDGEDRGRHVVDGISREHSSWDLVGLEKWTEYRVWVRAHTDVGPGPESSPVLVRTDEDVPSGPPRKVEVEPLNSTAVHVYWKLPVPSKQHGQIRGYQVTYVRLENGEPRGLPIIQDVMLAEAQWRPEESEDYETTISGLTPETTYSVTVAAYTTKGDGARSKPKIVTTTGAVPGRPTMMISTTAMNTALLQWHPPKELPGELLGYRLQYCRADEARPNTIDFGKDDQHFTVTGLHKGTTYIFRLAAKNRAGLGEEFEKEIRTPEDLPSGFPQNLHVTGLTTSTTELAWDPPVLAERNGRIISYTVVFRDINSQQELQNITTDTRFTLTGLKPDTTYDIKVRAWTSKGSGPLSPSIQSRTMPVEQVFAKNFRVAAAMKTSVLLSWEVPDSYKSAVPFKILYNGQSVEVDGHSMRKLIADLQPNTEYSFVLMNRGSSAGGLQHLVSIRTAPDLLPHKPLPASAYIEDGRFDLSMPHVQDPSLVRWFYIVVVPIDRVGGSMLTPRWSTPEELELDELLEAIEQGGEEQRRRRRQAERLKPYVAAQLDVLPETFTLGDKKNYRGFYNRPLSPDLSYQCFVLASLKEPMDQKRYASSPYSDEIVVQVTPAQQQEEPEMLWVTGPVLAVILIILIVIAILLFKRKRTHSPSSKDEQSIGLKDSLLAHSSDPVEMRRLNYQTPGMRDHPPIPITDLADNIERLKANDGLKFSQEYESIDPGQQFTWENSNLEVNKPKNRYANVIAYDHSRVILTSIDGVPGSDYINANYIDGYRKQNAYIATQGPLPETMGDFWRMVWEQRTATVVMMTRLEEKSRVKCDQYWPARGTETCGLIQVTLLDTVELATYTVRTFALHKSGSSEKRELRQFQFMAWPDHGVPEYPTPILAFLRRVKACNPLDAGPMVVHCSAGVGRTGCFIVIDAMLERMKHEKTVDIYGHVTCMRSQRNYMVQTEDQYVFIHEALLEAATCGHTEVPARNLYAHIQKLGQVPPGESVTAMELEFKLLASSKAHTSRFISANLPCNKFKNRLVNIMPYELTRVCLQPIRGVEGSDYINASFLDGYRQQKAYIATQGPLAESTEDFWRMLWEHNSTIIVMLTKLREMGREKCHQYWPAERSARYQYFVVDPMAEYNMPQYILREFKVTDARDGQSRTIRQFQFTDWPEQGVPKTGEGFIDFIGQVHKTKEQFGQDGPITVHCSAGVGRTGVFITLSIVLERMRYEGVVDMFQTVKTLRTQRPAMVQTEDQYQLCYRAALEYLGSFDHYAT

[5] = biological target: T3, Tyrosine-protein phosphatase non-receptor type 1 (Homo sapiens, UniProt P18031); test: Inhibition of GST-tagged PTP1B
T3 sequence (P18031 whole entry): T2 sequence (whole entry)

Activity [1] | Activity [2] | Activity [3] | Activity [4] | IC50 [5] [µM] | SMILES
inactive | Active | inactive | inactive |  | C=C(C)[C@H]1CC2=C(C(=O)OC)C=C(O2)[C@H](C(=C)C)[C@H]2C=C(C(=O)O2)C(OC(=O)CCCCCCCCCCCCCCC)C1 (some centres undefined)
inactive | Active | inactive | inactive | 113 | C=C(C)[C@H]1C2=CC(C(=O)OC)=C(C[C@H](C(=C)C)[C@@H](O)C(OC(=O)CCCCCCCCCCCCCCC)C3=C[C@H]1OC3=O)O2 (single isomer, unassigned) [LIPIDYL PSEUDOPTERANE A]
